Source: BindingDB's records for doi:10.1021/acs.jmedchem.5b01516 (Centre Hospitalier Universitaire Vaudois (Chuv), 2016)

Molecular target: Presenilin-1 (Homo sapiens, UniProt P49768)
Test: Inhibition of gamma secretase (unknown origin)

With `CC(C)[C@H](O)C(=O)N[C@@H](C)C(=O)NC1C(=O)N(C)CCc2ccccc21` (stereo partly drawn) [(2S)-2-hydroxy-3-methyl-N-[(1S)-1-{[(1S)-3-methyl-2-oxo-2,3,4,5-tetrahydro-1H-3-benzazepin-1-yl]carbamoyl}ethyl]butanamide] the IC50 was 11 nM.
